Measurements: patent publication US11447486B2, “2-amino-benzimidazole derivatives and their use as 5-lipoxygenase and/or prostaglandin E synthase inhibitors” (INSTITUT PASTEUR KOREA, priority 2014, dated 2022)

Assays:
Rat whole blood (RWB) = assay: LTB4 secretion assay in RWB (rat whole blood); type: cell-based; conditions: Rattus norvegicus
Procedure, shortened: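 Heparinized blood from male Sprague Dawley rats (6-9 weeks) diluted 1:1 in RPMI, pre-incubated 15 min at 37 °C with compound (2.5 nM to 50 uM). Stimulated with 10 uM calcium ionophore A23187 for 10 min at 37 °C, stopped with ice-cold PBS; LTB4 in supernatant quantified by EIA.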

[1] = tested on: Rat basophilic leukemia (RBL) cells; assay: LTB4 secretion assay in RBL (rat basophilic leukemia cells); type: cell-based; conditions: Rattus norvegicus, RBL
Procedure, shortened: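 Cells seeded 2×10^4/well the day before, then pre-incubated 15 min at 37 °C in EMEM/0.5% FBS with compound (5 nM to 100 uM). Stimulation with 2.5 uM arachidonic acid plus 5 uM A23187 (final) for 10 min at 37 °C; LTB4 in supernatant quantified by EIA.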

human 5-LOX = biological target: T1, human 5-LOX (Homo sapiens, UniProt P09917); assay: 5-LOX enzyme activity, fluorescence method (5-HPETE, H2DCFDA); type: biochemical; conditions: read-out: 5-LO (IC50)
T1 construct: purchased Cayman 60402; host or cells: insect cells (lysate)
T1 sequence (P09917 1-674): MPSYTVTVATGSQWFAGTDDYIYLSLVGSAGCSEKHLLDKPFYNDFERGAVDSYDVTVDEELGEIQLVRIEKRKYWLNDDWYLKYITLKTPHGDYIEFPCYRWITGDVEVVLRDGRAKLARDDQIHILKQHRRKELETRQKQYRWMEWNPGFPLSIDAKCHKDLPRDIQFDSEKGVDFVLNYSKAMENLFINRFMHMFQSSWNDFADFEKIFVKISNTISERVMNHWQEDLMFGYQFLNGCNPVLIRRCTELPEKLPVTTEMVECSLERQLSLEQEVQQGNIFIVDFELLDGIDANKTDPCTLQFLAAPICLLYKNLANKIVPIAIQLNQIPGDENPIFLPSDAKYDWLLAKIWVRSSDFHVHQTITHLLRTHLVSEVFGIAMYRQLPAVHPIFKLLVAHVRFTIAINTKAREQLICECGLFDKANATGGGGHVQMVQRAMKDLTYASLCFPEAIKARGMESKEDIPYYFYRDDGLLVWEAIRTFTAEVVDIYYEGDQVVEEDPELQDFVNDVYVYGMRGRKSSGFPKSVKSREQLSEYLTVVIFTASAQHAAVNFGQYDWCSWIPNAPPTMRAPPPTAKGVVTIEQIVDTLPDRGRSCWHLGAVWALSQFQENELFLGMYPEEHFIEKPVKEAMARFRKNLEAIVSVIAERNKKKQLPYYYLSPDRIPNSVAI
Procedure, shortened: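 Compound (0.5 nM to 10 uM) pre-incubated 5 min with enzyme; reaction started with ATP (100 uM final) and arachidonic acid (3 uM final). All steps at room temperature, fluorescence read-out.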

SMILES | EC50 (Rat whole blood (RWB)) [µM] | EC50 [1] [µM] | IC50 (human 5-LOX) [µM]
Nc1ccc2[nH]c(NCc3ccc(N4CCC(c5ccc(OC(F)(F)F)cc5)CC4)cc3)nc2c1 [Compound 108] | > 20 | > 20 | < 1
Cn1c(NCc2ccc(Oc3ncc(OC(F)(F)F)cn3)cc2)nc2ccc(NC3COC3)cc21 [Compound 412] | < 10 | < 10 | < 1
Cn1c(NCc2ccc(Oc3ccc(Cl)cc3)cc2)nc2ccc(NC3COC3)cc21 [Compound 184] | < 10 | < 10 | < 1
CCn1c(NCc2ccc(Oc3ncc(C(F)(F)F)cn3)cc2)nc2ccc(Nc3n[nH]c(C)c3Cl)cc21 [Compound 508] | < 10 | < 10 | 1 to 10
Nc1nc2ccc(NC3COC3)cc2n1Cc1ccc(Oc2ccc(Cl)cn2)cc1 [Compound 234] | < 10 | < 10 | < 1
Cn1c(NCc2ccc(Oc3ccc(C(F)(F)F)cn3)cc2F)nc2ccc(NC3COC3)cc21 [Compound 546] | < 10 | < 10 | < 1
Cn1c(NCc2ccc(Oc3ncc(Cl)cc3F)cc2)nc2ccc(NC3COC3)cc21 [Compound 324] | < 10 | < 10 | < 1
Clc1ccc(Oc2ccc(CNc3nc4cc(Nc5cn[nH]c5)ccc4[nH]3)cc2)cc1 [Compound 24] | < 10 | < 10 | < 1
Cn1c(NCc2ccc(Oc3ccc(Cl)nc3)cc2)nc2ccc(NC3COC3)cc21 [Compound 281] | < 10 | < 10 | < 1
Cc1cc(Nc2cc(F)c3nc(NCc4ccc(Oc5ncc(Cl)cn5)cc4)n(C)c3c2)n[nH]1 [Compound 499] | < 10 | < 10 | < 1
Cn1c(NCc2ccc(Oc3cnc(Cl)cn3)cc2)nc2ccc(NC3COC3)cc21 [Compound 296] | < 10 | < 10 | < 1
Nc1ccc2[nH]c(NCc3ccc(-c4ccc(Cl)cn4)cc3)nc2c1 [Compound 164] | > 20 | < 10 | < 1
Cn1c(NCc2ccc(Oc3ncc(Cl)cn3)cc2)nc2ccc(Nc3cc[nH]n3)cc21 [Compound 450] | < 10 | < 10 | < 1
CCC(Nc1nc2ccc(NC3COC3)cc2n1C)c1ccc(Oc2ncc(C(F)(F)F)cn2)cc1F (stereo not drawn) [Compound 543] | < 10 | < 10 | < 1
Nc1nc2cc(NCCOc3ccc(OC(F)(F)F)cc3)ccc2[nH]1 [Compound 75] | > 20 | 10 to 20 | < 1
COc1cc(Oc2ccc(Cl)cn2)ccc1CNc1nc2ccc(NC3COC3)cc2n1C [Compound 328] | < 10 | < 10 | < 1
CCn1c(NCc2ccc(Oc3ncc(Cl)cn3)cc2)nc2ccc(Nc3cc(C(F)(F)F)n(C)n3)cc21 [Compound 504] | < 10 | < 10 | 1 to 10
Nc1ccc2[nH]c(NCc3ccc(Oc4ccc(Cl)cn4)cc3)nc2c1 [Compound 138] | < 10 | < 10 | < 1
Cn1c(NCc2ccc(Oc3ccc(Cl)cc3)cn2)nc2ccc(NC3COC3)cc21 [Compound 298] | > 20 | < 10 | < 1
Nc1ccc2[nH]c(NCCc3ccc(Cl)cc3Cl)nc2c1 [Compound 73] | 10 to 20 | < 10 | < 1
Cn1ccc(Nc2ccc3nc(NCc4ccc(Oc5ccc(Cl)cn5)cc4)n(C)c3c2)n1 [Compound 413] | < 10 | < 10 | < 1
CN(c1ccc2nc(NCc3ccc(Oc4ccc(Cl)cn4)cc3)n(C)c2c1)C1COC1 [Compound 277] | < 10 | < 10 | < 1
CC(C)(C)Nc1nc2cc(N)ccc2n1CCOc1ccc(OC(F)(F)F)cc1 [Compound 66] | > 20 | < 10 | < 1
